PubChem BioAssay (NCI)
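Dose response: 5 concentrations. Exposure: 48 h. Format: 96-well plates. Endpoint: linear interpolation; highest concentration if not reached. Here, GI50 denotes the concentration required for 50% inhibition of growth. Definition used: TGI = concentration required for complete inhibition of growth.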

Key:
Assay in all cases: NCI anticancer screen, dose series, 48 h
LOX IMVI melanoma = tested on: LOX IMVI melanoma
SNB-75 CNS = tested on: SNB-75 CNS
A549 NSCLC = tested on: A549 NSCLC
HCT-15 colon = tested on: HCT-15 colon
SF-295 CNS = tested on: SF-295 CNS
BT-549 breast = tested on: BT-549 breast
SR leukemia = tested on: SR leukemia
SNB-19 CNS = tested on: SNB-19 CNS
HT29 colon = tested on: HT29 colon
UACC-257 melanoma = tested on: UACC-257 melanoma

SMILES	GI50 (LOX IMVI melanoma) [µM]	TGI (LOX IMVI melanoma) [µM]	GI50 (SNB-75 CNS) [µM]	TGI (SNB-75 CNS) [µM]	GI50 (A549 NSCLC) [µM]	TGI (A549 NSCLC) [µM]	GI50 (HCT-15 colon) [µM]	TGI (HCT-15 colon) [µM]	GI50 (SF-295 CNS) [µM]	TGI (SF-295 CNS) [µM]	GI50 (BT-549 breast) [µM]	TGI (BT-549 breast) [µM]	GI50 (SR leukemia) [µM]	TGI (SR leukemia) [µM]	GI50 (SNB-19 CNS) [µM]	TGI (SNB-19 CNS) [µM]	GI50 (HT29 colon) [µM]	TGI (HT29 colon) [µM]	GI50 (UACC-257 melanoma) [µM]	TGI (UACC-257 melanoma) [µM]
COc1c(C)c2c(c(O)c1C/C=C(\C)CCC(=O)OCCN1CCOCC1)C(=O)OC2	0.125	> 100	0.475	> 24.9	0.289	> 100	0.0928	> 100	0.323	> 100	0.426	> 100	0.24	32.6	0.325	> 100	0.552	> 100	0.573	> 100
CN(C)NC1=NS(=O)(=O)c2cc3c(cc2S1)N(N(C)C)C(=O)c1cc2c(cc1N(N(C)C)C3=O)SC(NN(C)C)=NS2(=O)=O		> 10		> 10		> 10		> 10		> 10		> 10		> 10		> 10		> 10		> 10
C=C1C[C@@H]2C/C=C/C(=O)C/C(C)=C\C=C\C(=O)O[C@H](C=O)C/C(C)=C/[C@H](C1)O2	0.711	13.5	0.294	1.96	1.98	> 100	0.485	16.2	3.26	43.2	0.315	0.94	1.18	6.77	4.34	24.8	0.281	12.6	14.1	34.7
CN(C)CCCN=C(N)N		> 100		> 100		> 100		> 100		> 100		> 100		> 100		> 100		> 100		> 100
COc1ccc2c(c1)nc(N)c1c3cc(OC)c(OC)cc3cn21		18.4		22.6	0.0925	16.6	< 0.01	13.3		16.2	0.827	15.2	< 0.01	5.04	0.0967	19.1		11.2	11.4	27.2
O=C(NC1CC1)c1ccc(-c2nc3ccc4[nH]ncc4c3c3c2CCCC3)cc1	1.95	11.7	1.54	4.87	1.63	> 50	1.58	13.9	2.24	13.6	1.51	7.69	0.987	6.02	4.47	> 50	2.05	> 50	9.1	34.7
NCCCC(=O)Nc1ccncc1	> 100	> 100	60	> 100	> 100	> 100	> 100	> 100	> 100	> 100	> 100	> 100	> 100	> 100	> 100	> 100	> 100	> 100	> 100	> 100
N#CC1=C(N)NC(=S)NC12Nc1ccccc1O2 (stereo not drawn)	20.2	50.4	59.5	> 100	37.2	> 100	21.6	> 100	38.4	> 100	48.2	> 100	0.597	> 100	23.9	> 100	31.2	90.8	35.3	> 100
N#CC1=C(N)N=C(N2CCCCC2)C(C#N)C12Nc1ccccc1S2 (stereo not drawn)	20.7	51.8	84.1	> 100	29.5	> 100	22	> 100	37.7	> 100	33.3	> 100	> 100	> 100	41	> 100	29.8	> 100	20.9	51
O=C1C(=Cc2ccco2)C(=O)C2CCCCC12 (stereo not drawn)		> 100		> 100		> 100		> 100		> 100		> 100		> 100		> 100		> 100		> 100
Nc1nc(Nc2ccc3c(c2)CC[C@@H](N2CCCC2)CC3)nn1-c1cc2c(nn1)-c1ccccc1CCC2	1.5	2.92	1.22	2.48	1.63	3.57	0.798	2.26	1.88	3.51	1.6	3.36	0.441	2.69	1.83	3.45	1.08	4.01	1.89	3.66
CCC1=C[C@@H]2CN(C1)Cc1c([nH]c3ccccc13)[C@@](C(=O)OC)(c1cc3c(cc1OC)N(C=O)[C@H]1[C@@](O)(C(=O)OC)[C@H](OC(C)=O)[C@]4(CC)[C@@H]5C[C@@H]5CN5CC[C@]31[C@@H]54)C2	< 0.000625	> 6.25	0.000766	> 5.74	0.003	> 6.25	0.107	> 6.25	0.00156		0.00166	0.211	< 0.000625		0.00127	> 6.25	< 0.000625	> 6.25	> 6.25	> 6.25
CCN1C(=O)N(CC)C2C1NN=c1s/c(=C3\C(=O)N(CC(C)C)c4ccccc43)c(=O)n12 (stereo not drawn)	0.811	> 100	0.268	3.82	0.957	> 100	0.438	> 100	0.542	11.4	2.45	> 100	0.522	> 100	1.89	39.2	0.396	> 100		> 100
